In PubChem BioAssay (NCI):
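Each compound was tested at five concentrations against cells in 96-well plates for 48 hours. The concentration for 50% growth inhibition is given as GI50. TGI: concentration producing complete growth inhibition.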

Legend:
Assay in all cases: NCI tumour cell line growth inhibition, 48 h
786-0 renal = tested on: 786-0 renal
A498 renal = tested on: A498 renal
A549 NSCLC = tested on: A549 NSCLC
ACHN renal = tested on: ACHN renal
BT-549 breast = tested on: BT-549 breast
CAKI-1 renal = tested on: CAKI-1 renal
CCRF-CEM leukemia = tested on: CCRF-CEM leukemia
COLO 205 colon = tested on: COLO 205 colon
DU-145 prostate = tested on: DU-145 prostate
EKVX NSCLC = tested on: EKVX NSCLC
HCC-2998 colon = tested on: HCC-2998 colon
HCT-116 colon = tested on: HCT-116 colon
HCT-15 colon = tested on: HCT-15 colon
HL-60(TB) leukemia = tested on: HL-60(TB) leukemia
HOP-62 NSCLC = tested on: HOP-62 NSCLC
HOP-92 NSCLC = tested on: HOP-92 NSCLC
HS 578T breast = tested on: HS 578T breast
HT29 colon = tested on: HT29 colon
IGROV1 ovarian = tested on: IGROV1 ovarian
K-562 leukemia = tested on: K-562 leukemia
LOX IMVI melanoma = tested on: LOX IMVI melanoma
M14 melanoma = tested on: M14 melanoma
MALME-3M melanoma = tested on: MALME-3M melanoma
MCF7 breast = tested on: MCF7 breast
MDA-MB-231 breast = tested on: MDA-MB-231 breast
MDA-MB-435 = tested on: MDA-MB-435
MOLT-4 leukemia = tested on: MOLT-4 leukemia
NCI-H226 lung = tested on: NCI-H226 lung
NCI-H23 lung = tested on: NCI-H23 lung
NCI-H460 lung = tested on: NCI-H460 lung
NCI-H522 lung = tested on: NCI-H522 lung
NCI/ADR-RES ovarian = tested on: NCI/ADR-RES ovarian
OVCAR-3 ovarian = tested on: OVCAR-3 ovarian
OVCAR-4 ovarian = tested on: OVCAR-4 ovarian
OVCAR-5 ovarian = tested on: OVCAR-5 ovarian
OVCAR-8 ovarian = tested on: OVCAR-8 ovarian
PC-3 prostate = tested on: PC-3 prostate
RPMI-8226 leukemia = tested on: RPMI-8226 leukemia
RXF 393 renal = tested on: RXF 393 renal
SF-268 CNS = tested on: SF-268 CNS
SF-295 CNS = tested on: SF-295 CNS
SF-539 CNS = tested on: SF-539 CNS
SK-MEL-2 melanoma = tested on: SK-MEL-2 melanoma
SK-MEL-28 melanoma = tested on: SK-MEL-28 melanoma
SK-MEL-5 melanoma = tested on: SK-MEL-5 melanoma
SK-OV-3 ovarian = tested on: SK-OV-3 ovarian
SN12C renal = tested on: SN12C renal
SNB-19 CNS = tested on: SNB-19 CNS
SNB-75 CNS = tested on: SNB-75 CNS
SR leukemia = tested on: SR leukemia
SW-620 colon = tested on: SW-620 colon
TK-10 renal = tested on: TK-10 renal
U251 CNS = tested on: U251 CNS
UACC-257 melanoma = tested on: UACC-257 melanoma
UACC-62 melanoma = tested on: UACC-62 melanoma
UO-31 renal = tested on: UO-31 renal

CC1OC(O[C@@H]2[C@H](O)C(CO)OC(O[C@H]3COC(O[C@H]4CC[C@]5(C)[C@H]6CC[C@]78OC[C@@]9(CCC(C)(C)C[C@H]97)[C@H](O)C[C@@]8(C)[C@]6(C)CC[C@H]5C4(C)C)[C@@H](OC4OC(CO)[C@@H](O)[C@@H](O)[C@@H]4O)[C@@H]3O)[C@H]2OC2OC[C@@H](O)[C@@H](O)[C@@H]2O)[C@@H](O)[C@@H](O)[C@H]1O (some centres not stated)
GI50 (786-0 renal): 2.8 µM | TGI (786-0 renal): 5.16 µM | GI50 (A498 renal): 2.44 µM | TGI (A498 renal): 4.59 µM | GI50 (A549 NSCLC): 3.07 µM | TGI (A549 NSCLC): 5.91 µM | GI50 (ACHN renal): 0.621 µM | TGI (ACHN renal): 2.57 µM | GI50 (BT-549 breast): 2.36 µM | TGI (BT-549 breast): 4.55 µM | GI50 (CAKI-1 renal): 2.39 µM | TGI (CAKI-1 renal): 4.51 µM | GI50 (CCRF-CEM leukemia): 0.698 µM | TGI (CCRF-CEM leukemia): 3.26 µM | GI50 (COLO 205 colon): 2.29 µM | TGI (COLO 205 colon): 4.5 µM | GI50 (DU-145 prostate): 2.47 µM | TGI (DU-145 prostate): 4.92 µM | GI50 (EKVX NSCLC): 3.04 µM | TGI (EKVX NSCLC): 5.48 µM | GI50 (HCC-2998 colon): 1.56 µM | TGI (HCC-2998 colon): 3.39 µM | GI50 (HCT-116 colon): 1.78 µM | TGI (HCT-116 colon): 3.68 µM | GI50 (HCT-15 colon): 2.52 µM | TGI (HCT-15 colon): 4.78 µM | GI50 (HL-60(TB) leukemia): 0.345 µM | TGI (HL-60(TB) leukemia): 0.7 µM | GI50 (HOP-62 NSCLC): 2.57 µM | TGI (HOP-62 NSCLC): 4.94 µM | GI50 (HOP-92 NSCLC): 1.85 µM | TGI (HOP-92 NSCLC): 3.81 µM | GI50 (HS 578T breast): 2.45 µM | TGI (HS 578T breast): 5.5 µM | GI50 (HT29 colon): 2.8 µM | TGI (HT29 colon): 5.23 µM | GI50 (IGROV1 ovarian): 2.31 µM | TGI (IGROV1 ovarian): 4.65 µM | GI50 (K-562 leukemia): 2.95 µM | TGI (K-562 leukemia): 5.98 µM | GI50 (LOX IMVI melanoma): 2.06 µM | TGI (LOX IMVI melanoma): 4.11 µM | GI50 (M14 melanoma): 1.44 µM | TGI (M14 melanoma): 3.35 µM | GI50 (MALME-3M melanoma): 2.58 µM | TGI (MALME-3M melanoma): 4.96 µM | GI50 (MCF7 breast): 2.23 µM | TGI (MCF7 breast): 4.83 µM | GI50 (MDA-MB-231 breast): 2.07 µM | TGI (MDA-MB-231 breast): 4.18 µM | GI50 (MDA-MB-435): 2.16 µM | TGI (MDA-MB-435): 4.22 µM | GI50 (MOLT-4 leukemia): 0.535 µM | TGI (MOLT-4 leukemia): 3.27 µM | GI50 (NCI-H226 lung): 2.73 µM | TGI (NCI-H226 lung): 5.73 µM | GI50 (NCI-H23 lung): 1.91 µM | TGI (NCI-H23 lung): 4.14 µM | GI50 (NCI-H460 lung): 2.62 µM | TGI (NCI-H460 lung): 5.35 µM | GI50 (NCI-H522 lung): 2.45 µM | TGI (NCI-H522 lung): 4.69 µM | GI50 (NCI/ADR-RES ovarian): 2.64 µM | TGI (NCI/ADR-RES ovarian): 5.4 µM | GI50 (OVCAR-3 ovarian): 2.75 µM | TGI (OVCAR-3 ovarian): 5.04 µM | GI50 (OVCAR-4 ovarian): 2.25 µM | TGI (OVCAR-4 ovarian): 4.82 µM | GI50 (OVCAR-5 ovarian): 2.52 µM | TGI (OVCAR-5 ovarian): 4.92 µM | GI50 (OVCAR-8 ovarian): 3.5 µM | TGI (OVCAR-8 ovarian): 6.83 µM | GI50 (PC-3 prostate): 2.56 µM | TGI (PC-3 prostate): 4.77 µM | GI50 (RPMI-8226 leukemia): 1.93 µM | TGI (RPMI-8226 leukemia): 4.68 µM | GI50 (RXF 393 renal): 0.566 µM | TGI (RXF 393 renal): 2.85 µM | GI50 (SF-268 CNS): 2.55 µM | TGI (SF-268 CNS): 5.13 µM | GI50 (SF-295 CNS): 2.58 µM | TGI (SF-295 CNS): 4.76 µM | GI50 (SF-539 CNS): 1.55 µM | TGI (SF-539 CNS): 3.51 µM | GI50 (SK-MEL-2 melanoma): 2.32 µM | TGI (SK-MEL-2 melanoma): 4.57 µM | GI50 (SK-MEL-28 melanoma): 0.809 µM | TGI (SK-MEL-28 melanoma): 2.77 µM | GI50 (SK-MEL-5 melanoma): 2.27 µM | TGI (SK-MEL-5 melanoma): 4.37 µM | GI50 (SK-OV-3 ovarian): 2.41 µM | TGI (SK-OV-3 ovarian): 4.53 µM | GI50 (SN12C renal): 1.68 µM | TGI (SN12C renal): 3.56 µM | GI50 (SNB-19 CNS): 2.14 µM | TGI (SNB-19 CNS): 4.43 µM | GI50 (SNB-75 CNS): 0.256 µM | TGI (SNB-75 CNS): 1.41 µM | GI50 (SR leukemia): 0.0169 µM | TGI (SR leukemia): 1.52 µM | GI50 (SW-620 colon): 2.55 µM | TGI (SW-620 colon): 5.12 µM | GI50 (TK-10 renal): 3.59 µM | TGI (TK-10 renal): 5.97 µM | GI50 (U251 CNS): 2.69 µM | TGI (U251 CNS): 5.13 µM | GI50 (UACC-257 melanoma): 2.85 µM | TGI (UACC-257 melanoma): 5.17 µM | GI50 (UACC-62 melanoma): 2.27 µM | TGI (UACC-62 melanoma): 4.34 µM | GI50 (UO-31 renal): 0.323 µM | TGI (UO-31 renal): 1.14 µM
